Measurements from patent US8574563B2 (Bristol-Myers Squibb Company, priority 2006, dated 2013).
pEC50: −log10 of the molar value.

System: HCV 1b-377-neo replicon cells
Experiment: HCV replicon assay, HCV 1b-377-neo replicon cells (1b FRET)
Assay type: cell-based, Hepatitis C virus genotype 1b
Settings: Hepatitis C virus, HCV 1b-377-neo replicon cells; HCV 1b genotype; read-out: EC50 range against HCV 1b (Table 2, Range)
Procedure, shortened: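 FRET-based replicon assay in HCV 1b-377-neo cells, including a comparison line carrying the NS5A Y2065H mutation that confers resistance to a reference compound.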

Compound `COC(=O)N[C@H](C(=O)N1CCC[C@H]1c1nc(-c2ccc(-c3ccc(-c4c[nH]c([C@@H]5CCCN5C(=O)CNC5CCOCC5)n4)cc3)cc2)c[nH]1)C(C)C` [Example F51, methyl ((1S)-2-methyl-1-(((2S)-2-(4-(4′-(2-((2S)-1-(N-(tetrahydro-2H-pyran-4-yl)glycyl)-2-pyrrolidinyl)-1H-imidazol-4-yl)-4-biphenylyl)-1H-imidazol-2-yl)-1-pyrrolidinyl)carbonyl)propyl)carbamate] has a pEC50 of 9.00 to 12.00.
For `COC(=O)N[C@@H](C(=O)N(C)[C@@H](C)c1ncc(-c2ccc(-c3ccc(-c4cnc([C@@H]5CCCN5C(=O)[C@H](NC(=O)OC)c5ccccc5)[nH]4)cc3)cc2)[nH]1)c1ccccc1` [Example 24-18-4, methyl ((1R)-2-((2S)-2-(5-(4′-(2-((1S)-1-(((2R)-2-((methoxycarbonyl)amino)-2-phenylacetyl)(methyl)amino)ethyl)-1H-imidazol-5-yl)-4-biphenylyl)-1H-imidazol-2-yl)-1-pyrrolidinyl)-2-oxo-1-phenylethyl)carbamate], the pEC50 was 9.00 to 12.00.
For `COC(=O)N[C@@H](C)C(=O)N(C)[C@@H](C)c1ncc(-c2ccc(-c3ccc(-c4[nH]c([C@@H]5CCCN5C(=O)[C@H](C)NC(=O)OC)nc4C(F)(F)F)cc3)cc2)[nH]1` [Example J42.a, methyl ((1S)-2-((2S)-2-(5-(4′-(2-((1S)-1-((N-(methoxycarbonyl)-L-alanyl)(methyl)amino)ethyl)-1H-imidazol-5-yl)-4-biphenylyl)-4-(trifluoromethyl)-1H-imidazol-2-yl)-1-pyrrolidinyl)-1-methyl-2-oxoethyl)carbamate], the pEC50 was 9.00 to 12.00.
For `COC(=O)N[C@@H](C(=O)N1CCC[C@H]1c1ncc(-c2ccc(-c3ccc(-c4[nH]c([C@@H]5CCCN5C(=O)[C@H](NC(=O)OC)c5ccccc5)nc4C(=O)O)cc3)cc2)[nH]1)c1ccccc1` [Example J30], the pEC50 was 7.00 to 9.00.
`O=C([C@@H]1CCCO1)N1CCC[C@H]1c1ncc(-c2ccc(-c3ccc(-c4cnc([C@@H]5CCCN5C(=O)[C@@H](c5ccccc5)N5CCOCC5)[nH]4)cc3)cc2)[nH]1` [Example 105, 4-((1R)-2-oxo-1-phenyl-2-((2S)-2-(5-(4′-(2-((2S)-1-((2S)-tetrahydro-2-furanylcarbonyl)-2-pyrrolidinyl)-1H-imidazol-5-yl)-4-biphenylyl)-1H-imidazol-2-yl)-1-pyrrolidinyl)ethyl)morpholine] was tested, and the pEC50 was 9.00 to 12.00.
For `COC(=O)N[C@@H](C(=O)N1CCC[C@H]1c1ncc(-c2ccc(-c3ccc(-c4cnc([C@@H]5CCCN5C(=O)N5CCN(C)CC5)[nH]4)cc3)cc2)[nH]1)c1ccccc1` [Example 29, methyl ((1R)-2-((2S)-2-(5-(4′-(2-((2S)-1-((4-methyl-1-piperazinyl)carbonyl)-2-pyrrolidinyl)-1H-imidazol-5-yl)-4-biphenylyl)-1H-imidazol-2-yl)-1-pyrrolidinyl)-2-oxo-1-phenylethyl)carbamate], the pEC50 was 9.00 to 12.00.
For `CC[C@H](C(=O)N1CCC[C@H]1c1ncc(-c2ccc(-c3ccc(-c4cnc([C@@H]5CCCN5C(=O)[C@@H](NC(=O)OC)C(C)C)[nH]4)cc3)cc2)[nH]1)N(CC)CC` [Example M85, methyl ((1S)-1-(((2S)-2-(5-(4′-(2-((2S)-1-((2R)-2-(diethylamino)butanoyl)-2-pyrrolidinyl)-1H-imidazol-5-yl)-4-biphenylyl)-1H-imidazol-2-yl)-1-pyrrolidinyl)carbonyl)-2-methylpropyl)carbamate], the pEC50 was 7.00 to 9.00.
Compound `COC(=O)N[C@@H](C(=O)N1CCC[C@H]1c1ncc(-c2ccc(-c3ccc(-c4cnc([C@@H]5CCCN5C(=O)[C@@](OC)(c5ccccc5)C(F)(F)F)[nH]4)cc3)cc2)[nH]1)c1ccccc1` [Example 84-81, methyl ((1R)-2-oxo-1-phenyl-2-((2S)-2-(5-(4′-(2-((2S)-1-((2S)-3,3,3-trifluoro-2-methoxy-2-phenylpropanoyl)-2-pyrrolidinyl)-1H-imidazol-5-yl)-4-biphenylyl)-1H-imidazol-2-yl)-1-pyrrolidinyl)ethyl)carbamate] has a pEC50 of 9.00 to 12.00.
